# Test system: von Bezold-Jarisch reflex evoked by 5-HT
# Test: Antagonism of the von Bezold-Jarisch reflex
# Type: in vivo
# Conditions: anaesthetised rat; dose of 1µg/kg i.v.
# Procedure: The compounds were evaluated for antagonism of the von Bezold-Jarisch reflex evoked by 5-HT in the anaesthetised rat according to the following method:
# Male rats 250-350g, were anaesthetised with urethane (1.25g/kg intraperitoneally) and blood pressure and heart rate recorded as described by Fozard J.R. et al., J. Cardiovasc. Pharmacol. 2, 229-245 (1980). A submaximal dose of 5-HT (usually 6µg/kg) was given repeatedly by the intravenous route and changes in heart rate quantified. Compounds were given intravenously and the concentration required to reduce the 5-HT-evoked response to 50% of the control response (ED₅₀) was then determined.
smiles,measurement,value
"COc1ccccc1NC(=O)NC1CC2COCC(C1)N2C (stereo not drawn) [Example E3, endo-N-(9-Methyl-9-aza-3-oxabicyclo[3.3.1]nonan-7-yl)-N′-(2-methoxyphenyl)urea]",activity (antagonism of the von Bezold-Jarisch reflex),active
"CN1C2COCC1CC(NC(=O)c1nn(C)c3ccccc13)C2 (stereo not drawn) [Example E4, endo-N-(9-Methyl-9-aza-3-oxabicyclo[3.3.1]nonan-7-yl)-1-methyl-1H-indazol-3-carboxamide]",activity (antagonism of the von Bezold-Jarisch reflex),active
"CN1C2COCC1CC(NC(=O)N1CC(C)(C)c3ccccc31)C2 (stereo not drawn) [Example E5, endo-N-(9-Methyl-9-aza-3-oxabicyclo[3.3.1]nonan-7-yl)-3,3-dimethyl-1-indoline carboxamide]",activity (antagonism of the von Bezold-Jarisch reflex),active
